# Experimental data published in patent US20220184172A1, “AMPK/CASPASE-6 AXIS CONTROLS LIVER DAMAGE IN NONALCOHOLIC STEATOHEPATITIS” (The Regents of the University of California, priority 2019, published 2022).
# Test system: CD-HFD fed C57BL/6J mice
# Test: AMPK agonist A-769662 in CD-HFD-induced NASH, C57BL/6J mice
# Type: in vivo
# Procedure: FIGS. 4A-4L. Both an AMPK agonist and a caspase-6 inhibitor therapeutically improve liver damage. FIG. 4A-4I. C57BL/6J mice were fed CD-HFD for 6 weeks, followed by intraperitoneally injection of 25 mg/kg A-769662 or vehicle daily for 2 weeks while continuous CD-HFD. FIG. 4A. Liver sections stained as indicated: TUNEL and DAPI. In the merged image section, the different stains correspond to the grayscale shades as indicated in the single stained images to the left. Scale bar=50 μm. FIG. 4B. Quantification of TUNEL-positive nuclei per field in FIG. 4A. n=7. FIG. 4C-4E. Serum ALT (FIG. 4C), AST (FIG. 4D) and ALP (FIG. 4E). n=7. FIG. 4F. H&E and Sirius red staining of liver sections as indicated. Scale bar=100 μm. FIG. 4G. Quantification of liver fibrosis area (% of total area) in FIG. 4F. n=7. FIG. 4H. Liver hydroxyproline. n=8. FIG. 4I. Expression of Tgfb, Timp1, Col1a1, Col3a1, Pdgfa, Pdgfb, Pdgfra and Ddr2 in livers. n=8. *, P<0.05, Student's unpaired t test. FIGS. 4J-4L. Flox and LAKO mice were fed CD-HFD for 6 weeks, followed by intraperitoneally injection of 5 mg/kg VEID (SEQ ID NO: 71) or vehicle every other day for 2 weeks while continuous feeding. FIG. 4J. Liver sections stained as indicated (TUNEL and DAPI); in the merged image sections, the different stains correspond to the grayscale shades as indicated in the single stained images to the left. Scale bar=50 μm. FIG. 4K. Quantification of TUNEL-positive nuclei per field in FIG. 4J. n=5-6. FIG. 4L. Serum ALT. n=5-6. Mean±SEM. *, P<0.05, two-way ANOVA. FIG. 4 discloses “VEID” as SEQ ID NO: 71.
# FIGS. 5A-5K. AMPK phosphorylates caspase-6 to inhibit its cleavage and activation. FIG. 5A. Primary hepatocytes were pretreated 40 μM A-769662 for 1 hr, then treated 30 μg/ml CHX and 50 ng/ml TNFα for 2 hrs. IB analysis of cell lysates. n=3. Mean±SD. *, P<0.05, two-way ANOVA. FIG. 5B. Primary hepatocytes were pretreated 40 μM A-769662 for 1 hr, then treated 250 μM BSA-conjugated palmitic acid (PA) for 2 hrs. Cell lysates were subject to caspase-6 activity assay. Mean±SD. *, P<0.05. FIG. 5C. Caspase-6 Ser^257 locates within AMPK substrate motif. FIG. 5C. discloses SEQ ID NOS 57-63, respectively, in order of appearance. FIG. 5D. In vitro kinase assay using recombinant caspase-6, and recombinant AMPKα1β1γ1 or AMPKα2β1γ1 active kinase. FIG. 5E. Alignment of caspase-6 sequence. FIG. 5E. discloses SEQ ID NOS 64-67, respectively, in order of appearance. FIG. 5F. HEK293T cells overexpressing caspase-6-myc WT, S^257A, S^257D or S^257E mutant were treated with 10 μg/ml CHX and 25 ng/ml TNFα for 2 hrs. IB analysis of cell lysates. FIGS. 5G-5J. C57BL/6J mice were fed CD-HFD for 6 weeks, followed by intraperitoneally injection of 25 mg/kg A-769662 or vehicle daily for 2 weeks while continuous CD-HI-D. Mice were sacrificed 6 hrs after last injection. FIG. 5G. IB analysis of liver lysates. n=5. FIG. 5H. Liver lysates were subject to caspase-6 activity assay. n=7. FIG. 5I. Liver sections stained as indicated therein (aCasp6 and DAPI); in the merged image sections, the different stains correspond to the grayscale shades as indicated in the single stained images to the left. Scale bar=50 μm. FIG. 5J. Quantification of aCasp6 staining per field in FIG. 5I. n=7. Mean±SEM. *, P<0.05, Student's unpaired t test. FIG. 5K. IB analysis of liver lysates from C57BL/6J mice fed ND or CD-HFD. Note: AMPK and pAMPK blots are the same as in FIG. 1B.
# FIGS. 13A-13I. A-769662 improves liver damage through AMPK activation in hepatocytes in NASH. C57BL/6J mice were fed with CD-HFD for 8 weeks. After 6 weeks of CD-HFD feeding, mice were intraperitoneally injected with 25 mg/kg A-769662 or vehicle daily for 2 weeks along with continuous CD-HFD feeding. FIG. 13A. Schematic diagram of experimental design. FIG. 13B-13C. Body weight (FIG. 13B) and liver weight (FIG. 13C) of indicated mice. n=7. FIG. 13D. Measurement of liver triglyceride (TG) of indicated mice. n=7. FIG. 13E. […]
# [1] = 25 mg/kg i.p. daily for 2 weeks, CD-HFD
# [2] = 25 mg/kg i.p. daily for 2 weeks, CD-HFD, sacrificed 6 hrs after last injection
# [3] = 25 mg/kg i.p. once per day for two weeks after 6 weeks CD-HFD
smiles,measurement,setting,value
N#Cc1c(O)c2c(-c3ccc(-c4ccccc4O)cc3)csc2[nH]c1=O [A-769662],"hepatic fibrosis (Sirius red fibrosis area, liver hydroxyproline)",25 mg/kg i.p. daily for 2 weeks after 6 weeks CD-HFD,attenuated
same,expression of Col1a1 in liver,[1],significantly reduced
same,expression of Col3a1 in liver,[1],significantly reduced
same,expression of Ddr2 in liver,[1],without effect
same,expression of Pdgfa in liver,[1],significantly reduced
same,expression of Pdgfb in liver,[1],significantly reduced
same,expression of Pdgfra in liver,[1],significantly reduced
same,expression of Tgfb in liver,[1],without effect
same,expression of inflammation marker gene Adgre1 in liver,[1],without effect
same,expression of inflammation marker gene Ccl2 in liver,[1],without effect
same,aCasp6 (active caspase-6) staining of liver sections,"25 mg/kg i.p. daily for 2 weeks, CD-HFD-induced NASH",decreased
same,caspase-6 activity in vivo (liver lysates),[2],decreased
same,procaspase-6 Ser257 phosphorylation (IB of liver lysates),[2],significantly increased
same,hepatic TG,[3],no effect
same,"liver damage (serum ALT, AST, ALP)",[3],improved
same,number of apoptotic cells (TUNEL-positive nuclei per field),[3],significantly reduced
